Results taken from PMC6222422, “Synthesis and Biological Evaluation of Novel Indole-Derived Thioureas” (Molecules : A Journal of Synthetic Chemistry and Natural …, 2018).
Where two headings read alike, the source gives them in different places.

Legend:
[1] = test system: HIV-1 AZT^R strain (67N, 70R, 215F, 219Q); test: microbe, parasite or virus in culture; assay type: cell-based, Human Immunodeficiency Virus type-1; conditions: read-out: EC50 AZT^R
[2] = test system: HIV-1 EFV^R (K103R + V179D + P225H mutant); test: microbe, parasite or virus in culture; assay type: cell-based, Human Immunodeficiency Virus type-1; conditions: read-out: EC50 EFV^R
[3] = test system: HIV-1 MDR strain (74V, 41L, 106A, 215Y); test: microbe, parasite or virus in culture; assay type: cell-based, Human Immunodeficiency Virus type-1; conditions: read-out: EC50 MDR
[4] = test system: HIV-1; conditions: read-out: EC50 HIV-1
[5] = test system: HIV-1 N119 (Y181C mutant); test: microbe, parasite or virus in culture; assay type: cell-based, Human Immunodeficiency Virus type-1; conditions: read-out: EC50 N119
[6] = test system: MT-4 cells
[7] = test system: HIV-1 A17 (K103N + Y181C mutant); test: microbe, parasite or virus in culture; assay type: cell-based, Human Immunodeficiency Virus type-1; conditions: read-out: EC50 A17
[8] = test system: WIL-2NS; test: Cytotoxicity against leukaemia/lymphoma cell lines, MTT; conditions: Homo sapiens, WIL2-NS, 96 h, read-out: CC50 WIL-2NS
[9] = test system: VV; test: microbe, parasite or virus in culture; assay type: cell-based; conditions: Orthopoxvirus vaccinia, Vero 76, read-out: VV EC50
[10] = test system: VSV; test: microbe, parasite or virus in culture; assay type: cell-based; conditions: Vesicular stomatitis virus, Vero 76, read-out: VSV EC50
[11] = test system: HSV-1; test: microbe, parasite or virus in culture; assay type: cell-based, human herpes 1; conditions: Human alphaherpesvirus 1, Vero 76, read-out: HSV-1 EC50
[12] = test system: RSV; test: microbe, parasite or virus in culture; assay type: cell-based, human respiratory syncytial virus; conditions: human respiratory syncytial virus, Vero 76, read-out: RSV EC50
[13] = test system: Sb-1; test: microbe, parasite or virus in culture; assay type: cell-based, poliovirus type-1; conditions: Enterovirus C, Vero 76, read-out: Sb-1 EC50
[14] = in vitro; conditions: human
[15] = test system: CCRF-CEM; test: Cytotoxicity against leukaemia/lymphoma cell lines, MTT; conditions: Homo sapiens, 96 h, read-out: CC50 CCRF-CEM
[16] = test system: CV-B5; test: microbe, parasite or virus in culture; assay type: cell-based, coxsackievirus B5; conditions: Enterovirus B, CVB5, Vero 76, read-out: CV-B5 EC50
[17] = in vitro; conditions: Syrian hamster (Mesocricetus auratus)
[18] = in vitro; conditions: cattle (Bos taurus)
[19] = test system: HIV-1; test: microbe, parasite or virus in culture; conditions: Human immunodeficiency virus 1, MT4, read-out: HIV-1 EC50
[20] = test system: Reo-1; test: microbe, parasite or virus in culture; assay type: cell-based, reovirus type-1; conditions: Reovirus sp., BHK, read-out: Reo-1 EC50
[21] = test system: cell lines derived from human haematological tumours; test: Cytotoxicity against cell lines derived from human haematological tumours, MTT; assay type: cell-based; conditions: CCRF-CEM, WIL-2NS, CCRF-SB, read-out: CC50 range over cell lines derived from human haematological tumours
Experimental: Cell lines derived from human haematological tumours [CD4+ human acute T-lymphoblastic leukaemia (CCRF-CEM), human splenic B-lymphoblastoid cells (WIL-2NS), human acute B-lymphoblastic leukaemia (CCRF-SB)] were seeded at an initial density of 1 × 10^5 cells/mL in 96 well plates in RPMI-1640 medium supplemented with 10% foetal calf serum (FCS), 100 units/mL penicillin G and 100 μg/mL streptomycin. Cell viability was determined after 96 h at 37 °C by the MTT method. All cell cultures were then incubated at 37 °C in a humidified, 5% CO2 atmosphere, in the absence or presence of serial dilutions of test compounds in culture medium. Before dilutions, compounds were dissolved in DMSO at 100 mM.

[22] = test system: CCRF-SB; test: Cytotoxicity against leukaemia/lymphoma cell lines, MTT; conditions: Homo sapiens, 96 h, read-out: CC50 CCRF-SB
[23] = in vitro; conditions: African green monkey (Cercopithecus aethiops)
[24] = test system: YFV; test: microbe, parasite or virus in culture; assay type: cell-based; conditions: Yellow fever virus, BHK, read-out: YFV EC50
[25] = test system: BVDV; test: microbe, parasite or virus in culture; assay type: cell-based, bovine viral diarrhoea virus; conditions: Bovine viral diarrhea virus isolates and strains, MDBK, in Bos taurus, read-out: BVDV EC50
[26] = Cytotoxicity, MTT method; conditions: human
[27] = test system: BHK cells; test: Cytotoxicity, MTT method; conditions: read-out: BHK CC50; reduce the proliferation of mock-infected BHK cells by 50% (Table 6)
[28] = Cytotoxicity, MTT method; conditions: Syrian hamster (Mesocricetus auratus)
[29] = Cytotoxicity, MTT method; conditions: cattle (Bos taurus)
[30] = Cytotoxicity, MTT method; conditions: African green monkey (Cercopithecus aethiops)

Cc1cn([C@H]2C[C@H](N=[N+]=[N-])[C@@H](CO)O2)c(=O)[nH]c1=O [AZT] gave an EC50 [1] of 0.35 ± 0.04 µM, an EC50 [2] of 0.02 ± 0.001 µM and an EC50 [3] of 0.08 ± 0.006 µM. The EC50 [4] was 0.022 ± 0.004 µM, the EC50 [5] was 0.025 ± 0.004 µM and the CC50 [6] was 45 µM. It also gave an EC50 [7] of 0.01 ± 0.001 µM.
For S=C(NCCc1c[nH]c2ccccc12)Nc1ccc(I)cc1 [Compound 21, 1-(2-(1H-Indol-3-yl)ethyl)-3-(4-iodophenyl)thiourea], the CC50 [8] was 5.8 ± 1 µM, the EC50 [9] was > 11 µM and the EC50 [10] was > 11 µM. The EC50 [11] was > 11 µM, the EC50 [12] was > 11 µM and the EC50 [13] was > 11 µM. For the same compound, the CC50 [14] was 2.4 ± 0.2 µM, the CC50 [15] was 5 ± 0.8 µM and the EC50 [16] was > 11 µM. The CC50 [17] was 11 µM, the CC50 [18] was > 100 µM and the EC50 [19] was > 2.4 µM. For the same compound, the EC50 [20] was > 11 µM, the CC50 [21] was 5 to 12 µM and the CC50 [22] was 12 ± 1.6 µM. The melting point was 162 to 165 °C, the CC50 [23] was 11 µM and the EC50 [24] was > 11 µM. The EC50 [25] was > 100 µM.
For CCNC(=S)NCCc1c[nH]c2ccccc12 [Compound 22, 1-(2-(1H-Indol-3-yl)ethyl)-3-ethylthiourea], the EC50 [9] was > 100 µM, the EC50 [10] was > 100 µM and the EC50 [11] was > 100 µM. For the same compound, the EC50 [12] was > 100 µM, the EC50 [13] was > 100 µM and the EC50 [16] was > 100 µM. The CC50 [26] was > 100 µM, the EC50 [19] was > 100 µM and the EC50 [20] was > 100 µM. For the same compound, the CC50 [27] was > 100 µM, the CC50 [28] was > 100 µM and the CC50 [29] was > 100 µM. For the same compound, the CC50 [30] was > 100 µM, the EC50 [24] was > 100 µM and the EC50 [25] was > 100 µM.
In the case of CNC(=S)NCCc1c[nH]c2ccccc12 [Compound 25, 1-(2-(1H-Indol-3-yl)ethyl)-3-methylthiourea], the EC50 [9] is reported as > 100 µM, the EC50 [10] is reported as > 100 µM and the EC50 [11] is reported as > 100 µM. For the same compound, the EC50 [12] was > 100 µM, the EC50 [13] was > 100 µM and the EC50 [16] was > 100 µM. For the same compound, the CC50 [26] was > 100 µM, the EC50 [19] was > 100 µM and the EC50 [20] was > 100 µM. The CC50 [27] was > 100 µM, the CC50 [28] was > 100 µM and the CC50 [29] was > 100 µM. The CC50 [30] was > 100 µM, the EC50 [24] was > 100 µM and the EC50 [25] was > 100 µM.
For COc1cccc2c1C(=O)c1c(O)c3c(c(O)c1C2=O)C[C@@](O)(C(=O)CO)C[C@@H]3O[C@H]1C[C@H](N)[C@H](O)[C@H](C)O1 [Doxorubicin, reference compound], the CC50 [8] was 0.02 ± 0.003 µM, the CC50 [15] was 0.02 ± 0.002 µM and the CC50 [22] was 0.03 ± 0.003 µM.
